Results on nine compounds are retold here after US5508428A, “Spiro compound” (Daiichi Phamaceutical Co., Ltd., priority 1988, dated 1996).

Holding throughout (assay type): cell-based
Experiment [1] concerns Pr. vulgaris, 08601. Put plainly: Antibacterial activity (MIC), Pr. vulgaris 08601. The note with it: for MIC: Proteus vulgaris. Here is the method: (§1) The antibacterial activity assays were performed by the method specified by Japan Society of Chemotherapy (Chemotherapy 29(1), 76 (1981). The table of antibacterial activity is followed by the reaction schemes for the synthesis of various spiro ring-containing cyclic amine derivatives, intermediate compounds for synthesis of quinolone rings and synthesis of various spiro compounds.

Experiment [2] has as its system Ps. aeruginosa, 32121. Briefly: Antibacterial activity (MIC), Ps. aeruginosa 32121. Conditions: for MIC: Pseudomonas aeruginosa, 32121, Ps. aeruginosa; for Antibacterial Activity (MIC): Ps. aeruginosa. As to the method:
as §1

The subject of experiment [3] is S. epidermidis, 56500. Put plainly: Antibacterial activity (MIC), S. epidermidis 56500. The note with it: for MIC: Staphylococcus epidermidis, 56500, S. epidermidis; for Antibacterial Activity (MIC): S. epidermidis. As to the method: as §1
Experiment [4] concerns S. aureus, 209P. Put plainly: Antibacterial activity (MIC), S. aureus 209P. The note with it: for MIC: Staphylococcus aureus. As to the method:
as §1

Experiment [5] concerns Str. pyogenes, G-36. Briefly: Antibacterial activity (MIC), Str. pyogenes G-36. The note with it: for MIC: Streptococcus pyogenes, G36, Str. pyogenes; for Antibacterial Activity (MIC): Str. pyogenes. Here is the method: as §1
Experiment [6] relates to Ps. maltophilia, IID-1275. Briefly: Antibacterial activity (MIC), Ps. maltophilia IID-1275. Conditions: for MIC: Stenotrophomonas maltophilia, IID1275, Ps. maltophilia; for Antibacterial Activity (MIC): Ps. maltophilia. As to the method: as §1
For experiment [7], the system named is E. coli, NIHJ. Put plainly: Antibacterial activity (MIC), E. coli NIHJ. The note with it: for MIC: Escherichia coli. As to the method: as §1
The subject of experiment [8] is Pr. mirabillis, IF0-3849. Briefly: Antibacterial activity (MIC), Pr. mirabillis IF0-3849. As to the method: as §1
For experiment [9], the system named is Ser. marcescens, 10100. Put plainly: Antibacterial activity (MIC), Ser. marcescens 10100. The note with it: for MIC: Serratia marcescens, 10100, Ser. marcescens; for Antibacterial Activity (MIC): Ser. marcescens. As to the method: as §1
Experiment [10] concerns Str. faecalis, ATCC-19433. Put plainly: Antibacterial activity (MIC), Str. faecalis ATCC-19433. The note with it: for MIC: Enterococcus faecalis, ATCC19433, Str. faecalis; for Antibacterial Activity (MIC): Str. faecalis. Here is the method: as §1
Experiment [11] concerns Ps. aeruginosa, 32104. Put plainly: Antibacterial activity (MIC), Ps. aeruginosa 32104. The note with it: for MIC: Pseudomonas aeruginosa, 32104, Ps. aeruginosa; for Antibacterial Activity (MIC): Ps. aeruginosa. Here is the method:
as §1

The subject of experiment [12] is S. flexneri, 2A 5503. Put plainly: Antibacterial activity (MIC), S. flexneri 2A 5503. Conditions: for MIC: Shigella flexneri, 2A5503. Here is the method:
as §1

The structures appear in SMILES notation. In brackets after ≈: the same amount, converted by molar mass.

On to `NC1CN(c2c(F)cc3c(=O)c(C(=O)O)cn(C4CC4)c3c2Cl)CC12CC2` (racemic) [Compound 32, 7-(7-Amino-5-azaspiro[2.4]heptan-5-yl)-8-chloro-1-cyclopropyl-6-fluoro-1,4-dihydro-4-oxoquinoline-3-carboxylic Acid], for which the MIC in experiment [1] was ≤ 0.05 µg/mL; in experiment [2] it was ≤ 0.05 µg/mL; in [3] it was 0.1 µg/mL (≈ 0.255 µM); in [4], ≤ 0.05 µg/mL; in [5], 0.1 µg/mL (≈ 0.255 µM); in [6] it was ≤ 0.05 µg/mL. The MIC in experiment [7] was ≤ 0.05 µg/mL; in [8], ≤ 0.05 µg/mL; in experiment [9], ≤ 0.05 µg/mL; in [10] it was 0.1 µg/mL (≈ 0.255 µM); in experiment [11], 0.1 µg/mL (≈ 0.255 µM); in experiment [12] it was ≤ 0.05 µg/mL.

Turning to `NC1CN(c2cc3c(cc2F)c(=O)c(C(=O)O)cn3C2CC2)CC12CC2` (racemic) [Compound 33, 7-(7-Amino-5-azaspiro[2.4]heptan-5-yl)-1-cyclopropyl-6-fluoro-1,4-dihydro-4-oxoquinoline-3-carboxylic Acid], the MIC in [1] was ≤ 0.05 µg/mL; in experiment [2], ≤ 0.05 µg/mL; in experiment [3], 0.2 µg/mL (≈ 0.56 µM); in experiment [4] it was ≤ 0.05 µg/mL; in experiment [5], 0.39 µg/mL (≈ 1.09 µM); in experiment [6], 0.1 µg/mL (≈ 0.28 µM). Besides, the MIC in [7] was ≤ 0.05 µg/mL; in experiment [8], ≤ 0.05 µg/mL; in experiment [9], 0.1 µg/mL (≈ 0.28 µM); in experiment [10] it was 0.39 µg/mL (≈ 1.09 µM); in [11], 0.1 µg/mL (≈ 0.28 µM); in experiment [12], ≤ 0.05 µg/mL.

Take `NC1CN(c2c(F)cc3c(=O)c(C(=O)O)cn(C4CC4)c3c2Cl)CC12CC2` (single isomer, unassigned) [Compound 32a, 7-(7-amino-5-azaspiro[2.4]heptan-5-yl)-8-chloro-1-cyclopropyl-6-fluoro-1,4-dihydro-4-oxoquinoline-3-carboxylic acid]: the MIC in experiment [1] was ≤ 0.05 µg/mL; in experiment [2], 0.1 µg/mL (≈ 0.255 µM); in experiment [4], 0.1 µg/mL (≈ 0.255 µM); in experiment [5] it was 0.78 µg/mL (≈ 1.99 µM); in [6] it was 0.1 µg/mL (≈ 0.255 µM); in [7], ≤ 0.05 µg/mL. The MIC was 0.1 µg/mL (≈ 0.255 µM) in [8], 0.1 µg/mL (≈ 0.255 µM) in experiment [9] and ≤ 0.05 µg/mL in experiment [12]. The “Antibacterial Activity (MIC)” value in experiment [3] was found to be 0.20 µg/mL; in [10], 0.39 µg/mL; in experiment [11], 0.39 µg/mL.

In the case of `NC1CN(c2c(F)cc3c(=O)c(C(=O)O)cn(C4CC4)c3c2Cl)CC12CC2` (single isomer, unassigned) [Compound 32b, 7-(7-amino-5-azaspiro[2.4]heptan-5-yl)-8-chloro-1-cyclopropyl-6-fluoro-1,4-dihydro-4-oxoquinoline-3-carboxylic acid], the “Antibacterial Activity (MIC)” value in [1] is ≤ 0.05 µg/mL; in experiment [2] it was ≤ 0.05 µg/mL; in [3] it was ≤ 0.05 µg/mL; in experiment [4] it was ≤ 0.05 µg/mL; in experiment [5], 0.39 µg/mL; in experiment [6] it was ≤ 0.05 µg/mL. In addition, the “Antibacterial Activity (MIC)” value in [7] is ≤ 0.05 µg/mL; in experiment [8], ≤ 0.05 µg/mL; in [9], ≤ 0.05 µg/mL; in [10], 0.10 µg/mL; in experiment [11], 0.10 µg/mL; in experiment [12] it was ≤ 0.05 µg/mL.

With `NC1CN(c2c(F)cc3c(=O)c(C(=O)O)cn(C4CC4)c3c2F)CC12CC2` (single isomer, unassigned; (+)) [Compound 31a, (+)-7-(7-Amino-5-azaspiro[2.4]heptan-5-yl)-1-cyclopropyl-6,8-difluoro-1,4-dihydro-4-oxoquinoline-3-carboxylic Acid], the MIC in experiment [1] was ≤ 0.05 µg/mL; in [2] it was 0.1 µg/mL (≈ 0.266 µM); in [4], 0.1 µg/mL (≈ 0.266 µM); in [6], 0.1 µg/mL (≈ 0.266 µM); in experiment [7], ≤ 0.05 µg/mL; in [8], 0.1 µg/mL (≈ 0.266 µM). The MIC in experiment [9] and in [12] was ≤ 0.05 µg/mL in each case. The “Antibacterial Activity (MIC)” value amounted to 0.39 µg/mL in experiment [3], 1.57 µg/mL in experiment [5], 0.79 µg/mL in experiment [10] and 0.20 µg/mL in experiment [11].

Turning to `NC1CN(c2c(F)cc3c(=O)c(C(=O)O)cn(C4CC4)c3c2F)CC12CC2` (single isomer, unassigned; (-)) [Compound 31b, (-)-7-(7-Amino-5-azaspiro[2.4]heptan-5-yl)-1-cyclopropyl-6,8-difluoro-1,4-dihydro-4-oxoquinoline-3-carboxylic Acid], the “Antibacterial Activity (MIC)” value in experiment [1] was ≤ 0.05 µg/mL; in experiment [2] it was ≤ 0.05 µg/mL; in experiment [3], ≤ 0.05 µg/mL; in [4] it was ≤ 0.05 µg/mL; in experiment [5], 0.10 µg/mL; in experiment [6], ≤ 0.05 µg/mL. Moreover, the “Antibacterial Activity (MIC)” value in experiment [7] is ≤ 0.05 µg/mL; in experiment [8], ≤ 0.05 µg/mL; in [9], ≤ 0.05 µg/mL; in [10], 0.10 µg/mL; in experiment [11], ≤ 0.05 µg/mL; in [12] it was ≤ 0.05 µg/mL.

As for `NC1CN(c2nc3c(cc2F)c(=O)c(C(=O)O)cn3C2CC2)CC12CC2` (single isomer, unassigned; (-)) [Compound 35b, (-)-7-(7-Amino-5-azaspiro[2.4]heptan-5-yl)-1-cyclopropyl-6-fluoro-4-oxo-1,4-dihydro-1,8-naphthyridine-3-carboxylic acid], the MIC was ≤ 0.05 µg/mL in experiment [1]; ≤ 0.05 µg/mL in experiment [2]; 0.1 µg/mL (≈ 0.279 µM) in [3]; ≤ 0.05 µg/mL in experiment [4]; 0.78 µg/mL (≈ 2.18 µM) in experiment [5]; ≤ 0.05 µg/mL in experiment [6]. Besides, the MIC in [7] was ≤ 0.05 µg/mL; in experiment [8] it was ≤ 0.05 µg/mL; in [9], ≤ 0.05 µg/mL; in [10], 0.39 µg/mL (≈ 1.09 µM); in [11] it was ≤ 0.05 µg/mL; in experiment [12] it was ≤ 0.05 µg/mL.

`C[C@H]1COc2c(N3CC(N)C4(CC4)C3)c(F)cc3c(=O)c(C(=O)O)cn1c23` (single isomer, unassigned; (-)) [Compound 36b]: the minimal inhibitory concentration (MIC) in experiment [1] is ≤ 0.05 µg/mL; in experiment [2], 0.1 µg/mL (≈ 0.268 µM); in [3], 0.1 µg/mL (≈ 0.268 µM); in [4] it was ≤ 0.05 µg/mL; in [5], 0.39 µg/mL (≈ 1.04 µM); in experiment [6] it was 0.39 µg/mL (≈ 1.04 µM). Moreover, the MIC in [7] is ≤ 0.05 µg/mL; in experiment [8], 0.1 µg/mL (≈ 0.268 µM); in experiment [9] it was 0.2 µg/mL (≈ 0.536 µM); in experiment [10], 0.39 µg/mL (≈ 1.04 µM); in experiment [11], 0.2 µg/mL (≈ 0.536 µM); in experiment [12], ≤ 0.05 µg/mL.

Regarding `Cc1c(N2CC(N)C3(CC3)C2)c(F)cc2c(=O)c(C(=O)O)cn(C3CC3)c12` (single isomer, unassigned; (-)) [Compound 55b, (-)-7-(7-Amino-5-azaspiro[2.3]heptan-5-yl)-1-cyclopropyl-6-fluoro-8-methyl-4-oxo-1,4-dihydroquinoline-3-carboxylic acid], the minimal inhibitory concentration (MIC) is ≤ 0.05 µg/mL in experiment [1]; ≤ 0.05 µg/mL in experiment [2]; ≤ 0.05 µg/mL in experiment [3]; ≤ 0.05 µg/mL in experiment [4]; 0.1 µg/mL (≈ 0.269 µM) in experiment [5]; ≤ 0.05 µg/mL in experiment [6]. Further, the MIC was ≤ 0.05 µg/mL in experiment [7]; ≤ 0.05 µg/mL in experiment [8]; 0.1 µg/mL (≈ 0.269 µM) in experiment [9]; 0.1 µg/mL (≈ 0.269 µM) in experiment [10]; ≤ 0.05 µg/mL in experiment [11]; ≤ 0.05 µg/mL in experiment [12].
